Assay [1] in a line: DPPH radical scavenging assay. The conditions noted are these: for IC50: 30 min incubation, λ = 517 nm. As for the experimental part:
The DPPH^• radical scavenging assay is based on transferring a hydrogen atom from the tested compounds to the violet stable free radical DPPH^• (2,2-diphenyl-1-picrylhydrazyl radical), converting it into a yellow compound. The assay was conducted using tested compounds and references in concentrations ranging from 2 to 50 µM, according to our adaptation of the protocol of Brand-Williams et al.. The absorbance of the samples is given by the remaining unreacted reagent radical, and it is inversely proportional to the amount of DPPH^• neutralized. The absorbance of the samples was measured at λ = 517 nm after 30 min of incubation in the dark at room temperature. The DPPH^• radical scavenging activity of the compounds was calculated using Equation (1):(1) DPPH^• scavenging (%)=control absorbance−sample absorbance/control absorbance×100

The test system of assay [2] is ARPE-19 cells. Description: Cell viability (resazurin) on ARPE-19. The conditions noted are these: ARPE-19, up to 50 µM. In kind it is cell-based, human. From the text:
The ARPE-19 cell line was purchased from CLS Cell Lines Service GmbH (Eppelheim, Germany) and cultured in Dulbecco’s modified Eagle’s medium/F-12 (HAM) 1:1 (Biological Industries, Beit, Israel). The medium was supplemented with 10% fetal bovine serum (FBS) (Thermo Fisher Scientific, Waltham, MA, USA) and 1% penicillin-streptomycin (Biosera, Cholet, France). The cancerous cell line A549 was purchased from ATCC (Manassas, VA, USA) and cultivated in high-glucose Dulbecco’s modified Eagle’s medium (DMEM 4.5 g/L). The normal BJ cell line was also purchased from ATCC (Manassas, VA, USA) and was cultivated in low-glucose Dulbecco’s modified Eagle’s medium (DMEM 1 g/L). The media was supplemented in both cases with 10% FBS. Cells were cultured in T75 flasks and incubated at 37 °C in a humidified incubator with 5% CO2 supplementation. For maintenance, the media was changed every 2–3 days, and when the confluence of the flask reached approximately 85%, the cells were either subcultured or further used in the experiments.
ARPE-19 cells were seeded at a density of 2 × 10^4 cells/well and 1 × 10^4 cells/well (suspended in 100 µL) in 96-well plates for 24 h and 48 h, respectively. For the BJ cells, the seeding density was 0.5 × 10^4 cells/well and 0.3 × 10^4 cells/well for 24 h and 48 h, respectively, and for the A549 cells, 1.5 × 10^4 cells/well for 24 h and 0.75 × 10^4 cells/well for 48 h. As cells have different sizes and volumes, the different seeding densities were selected to reach a confluency of 80–90% by the end of the experiments. Cells were further exposed to the synthesized compounds for 24/48 h at concentrations ranging from 12.5 to 500 µM. After the incubation period, the exposure media was removed, the cells were washed with PBS, and further incubated with a 200 µM resazurin solution for 3 h as described in our previous report. The conversion of resazurin to the fluorescent resorufin compound by viable cells was measured at λexcitation = 550; λemission = 600, using SpectraMax iD3 (Molecular Devices, San Jose, CA, USA). The experiments were conducted in biological triplicate, each with a minimum of 3 technical replicates. The measured viability was expressed as relative values to the control (cells exposed only to the vehicle–culture medium containing 0.4% DMSO).
(Resazurin is reduced to fluorescent resorufin, in cell work by metabolically active cells.)

These results are taken from paper PMC12189671, “Antioxidant Activity and Cytotoxicity Evaluation of New Catechol Hydrazinyl-Thiazole Derivatives as Potential Protectors in Retinal Degenerative Processes” (Antioxidants, 2025).

As a reminder, the IC50 is the point on the concentration scale where inhibition reaches its midpoint.

In assay [1], `CC1=C(/C=C/C(C)=N/Nc2nc(-c3ccc(O)c(O)c3)cs2)C(C)(C)CCC1.Cl` [Compound 5b, 4-(2-(2-((2E,3E)-4-(2,6,6-trimethylcyclohex-1-en-1-yl)but-3-en-2-ylidene) hydrazineyl)thiazol-4-yl)benzene-1,2-diol hydrochloride] returned an IC50 of 18.4 µM.

As to `C/C=C/C=N/Nc1nc(-c2ccc(O)c(O)c2)cs1.Cl` [Compound 5a, 4-(2-(2-((1E,2E)-but-2-en-1-ylidene)hydrazineyl)thiazol-4-yl)benzene-1,2-diol hydrochloride], in assay [1], half-maximal inhibition (IC50) required 9.8 µM. The “fold higher activity than the reference compounds in the DPPH^• scavenging assay” value in assay [1] (compared to ascorbic acid and Trolox) is “up to 5 fold”. For the same compound, the “effect on ARPE-19 cell viability” value in assay [2] is “slight proliferative effect”.
